Measurements from ChEMBL document CHEMBL4627329, “Regioselective synthesis and evaluation of 2-amino 3-cyano chromene-chrysin hybrids as potential anticancer agents” (Bioorg Med Chem Lett, 2020).
Calls of active or inactive are those of the source. The rule behind the calls is not given here.

Columns and labels:
[1] = tested on: K562; assay: Antiproliferative activity against human K562 cells assessed as inhibition of cell proliferation incubated for 48 hrs by MTT assay; assay type: functional, cell-based; conditions: K562, 48 h
[2] = tested on: PC-3; assay: Antiproliferative activity against human PC3 cells assessed as inhibition of cell proliferation incubated for 48 hrs by MTT assay; assay type: functional, cell-based; conditions: PC-3, 48 h
[3] = tested on: A549; assay: Antiproliferative activity against human A549 cells assessed as inhibition of cell proliferation incubated for 48 hrs by MTT assay; assay type: functional, cell-based; conditions: A549, 48 h
[4] = tested on: NCI-H1299; assay: Antiproliferative activity against human NCI-H1299 cells assessed as inhibition of cell proliferation incubated for 48 hrs by MTT assay; assay type: functional, cell-based; conditions: NCI-H1299, 48 h
[5] = tested on: MRC5; assay: Cytotoxicity against human MRC5 cells assessed as inhibition of cell proliferation incubated for 48 hrs by MTT assay; assay type: cell-based; conditions: MRC5, 48 h
[6] = tested on: K562; assay: Induction of apoptosis in human K562 cells at 5 to 20 uM measured after 24 hrs by AO-EB staining based fluorescence microscopy analysis; assay type: functional, cell-based
[7] = tested on: K562; assay: Induction of apoptosis in human K562 cells at assessed as live cells at 5 uM measured after 24 hrs by AnnexinV-FITC/propidium iodide staining based flow cytometry (reference value: 96 %); assay type: functional
[8] = tested on: K562; assay: Induction of apoptosis in human K562 cells at assessed as early apoptotic cells at 5 uM measured after 24 hrs by AnnexinV-FITC/propidium iodide staining based flow cytometry (reference value: 1.45 %); assay type: functional
[9] = tested on: K562; assay: Induction of apoptosis in human K562 cells at assessed as late apoptotic cells at 5 uM measured after 24 hrs by AnnexinV-FITC/propidium iodide staining based flow cytometry (reference value: 2.06 %); assay type: functional
[10] = tested on: K562; assay: Induction of apoptosis in human K562 cells at assessed as necrotic cells at 5 uM measured after 24 hrs by AnnexinV-FITC/propidium iodide staining based flow cytometry (reference value: 0.518 %); assay type: functional
[11] = tested on: K562; assay: Induction of apoptosis in human K562 cells at assessed as live cells at 10 uM measured after 24 hrs by AnnexinV-FITC/propidium iodide staining based flow cytometry (reference value: 96 %); assay type: functional
[12] = tested on: K562; assay: Induction of apoptosis in human K562 cells at assessed as early apoptotic cells at 10 uM measured after 24 hrs by AnnexinV-FITC/propidium iodide staining based flow cytometry (reference value: 1.45 %); assay type: functional
[13] = tested on: K562; assay: Induction of apoptosis in human K562 cells at assessed as late apoptotic cells at 10 uM measured after 24 hrs by AnnexinV-FITC/propidium iodide staining based flow cytometry (reference value: 2.06 %); assay type: functional
[14] = tested on: K562; assay: Induction of apoptosis in human K562 cells at assessed as necrotic cells at 10 uM measured after 24 hrs by AnnexinV-FITC/propidium iodide staining based flow cytometry (reference value: 0.518 %); assay type: functional
[15] = tested on: K562; assay: Induction of apoptosis in human K562 cells at assessed as live cells at 20 uM measured after 24 hrs by AnnexinV-FITC/propidium iodide staining based flow cytometry (reference value: 96 %); assay type: functional
[16] = tested on: K562; assay: Induction of apoptosis in human K562 cells at assessed as early apoptotic cells at 20 uM measured after 24 hrs by AnnexinV-FITC/propidium iodide staining based flow cytometry (reference value: 1.45 %); assay type: functional
[17] = tested on: K562; assay: Induction of apoptosis in human K562 cells at assessed as late apoptotic cells at 20 uM measured after 24 hrs by AnnexinV-FITC/propidium iodide staining based flow cytometry (reference value: 2.06 %); assay type: functional
[18] = tested on: K562; assay: Induction of apoptosis in human K562 cells at assessed as necrotic cells at 20 uM measured after 24 hrs by AnnexinV-FITC/propidium iodide staining based flow cytometry (reference value: 0.518 %); assay type: functional
[19] = tested on: K562; assay: Induction of apoptosis in human K562 cells measured after 24 hrs by AnnexinV-FITC/propidium iodide staining based flow cytometry; assay type: functional, cell-based
[20] = tested on: K562; assay: Cell cycle arrest in human K562 cells assessed as increase in cell population at G1 phase at 5 uM measured after 24 hrs by flow cytometry analysis; assay type: functional, cell-based
[21] = tested on: K562; assay: Cell cycle arrest in human K562 cells assessed as decrease in cell population at S phase at 5 uM measured after 24 hrs by flow cytometry analysis; assay type: functional, cell-based
[22] = tested on: K562; assay: Induction of apoptosis in human K562 cells assessed as downregulation of Bcl-2 protein measured after 24 hrs by Western blot analysis; assay type: functional, cell-based
[23] = tested on: K562; assay: Induction of apoptosis in human K562 cells assessed as upregulation of Bax protein expression measured after 24 hrs by Western blot analysis; assay type: functional, cell-based

IC50 [1] [µM] | IC50 [2] [µM] | IC50 [3] [µM] | IC50 [4] [µM] | Structure (SMILES) | also measured
48.8 | > 50 | > 50 | > 50 | N#CC1=C(N)Oc2cc3oc(-c4ccccc4)cc(=O)c3c(O)c2C1c1ccccc1Br (stereo unspecified) | 
43 | 46.9 | 31.6 | > 50 | N#CC1=C(N)Oc2cc3oc(-c4ccccc4)cc(=O)c3c(O)c2C1c1ccccc1 (stereo unspecified) | 
12.4 | > 50 | > 50 | 33.1 | N#CC1=C(N)Oc2cc3oc(-c4ccccc4)cc(=O)c3c(O)c2C1c1ccc(Cl)cc1 (stereo unspecified) | 
19.7 | > 50 | > 50 | 42 | Cc1ccc(C2C(C#N)=C(N)Oc3cc4oc(-c5ccccc5)cc(=O)c4c(O)c32)c(C)c1 (stereo unspecified) | 
6.41 | 36.8 | > 50 | 24.2 | N#CC1=C(N)Oc2cc3oc(-c4ccccc4)cc(=O)c3c(O)c2C1c1cccc(Br)c1 (stereo unspecified) | IC50 [5]: > 100 µM; Activity [6]: Active; Activity [7]: 90.2%; Activity [8]: 5.87%; Activity [9]: 2.85%; Activity [10]: 1.06%; Activity [11]: 77.6%; Activity [12]: 14.4%; Activity [13]: 5.23%; Activity [14]: 2.84%; Activity [15]: 62.4%; Activity [16]: 27.6%; Activity [17]: 7.58%; Activity [18]: 2.44%; Activity [19]: Dose-dependent effect; Activity [20]: Dose-dependent effect; Activity [21]: Dose-dependent effect; Activity [22]: Dose-dependent effect; Activity [23]: Dose-dependent effect
28.1 | 43.2 | 44 | 45.3 | N#CC1=C(N)Oc2cc3oc(-c4ccccc4)cc(=O)c3c(O)c2C1c1ccccc1F (stereo unspecified) | 
16.8 | > 50 | > 50 | > 50 | COc1cccc(C2C(C#N)=C(N)Oc3cc4oc(-c5ccccc5)cc(=O)c4c(O)c32)c1OC (stereo unspecified) | 
20.2 | > 50 | > 50 | > 50 | COc1ccccc1C1C(C#N)=C(N)Oc2cc3oc(-c4ccccc4)cc(=O)c3c(O)c21 (stereo unspecified) | 
18.6 | 30.4 | 20.5 | 40.8 | N#CC1=C(N)Oc2cc3oc(-c4ccccc4)cc(=O)c3c(O)c2C1c1cccc(F)c1 (stereo unspecified) | 
45.2 | > 50 | > 50 | 44.8 | COc1ccc(-c2cc(=O)c3c(O)c4c(cc3o2)OC(N)=C(C#N)C4c2ccc(F)cc2)c(OC)c1 (stereo unspecified) | 
47.1 | > 50 | > 50 | > 50 | CC(C)(C)c1ccc(C2C(C#N)=C(N)Oc3cc4oc(-c5ccccc5)cc(=O)c4c(O)c32)cc1 (stereo unspecified) | 
14.4 | > 50 | > 50 | 43.4 | N#CC1=C(N)Oc2cc3oc(-c4ccccc4)cc(=O)c3c(O)c2C1c1ccccc1Cl (stereo unspecified) | 
10.1 | 46.8 | > 50 | 18.8 | N#CC1=C(N)Oc2cc3oc(-c4ccccc4)cc(=O)c3c(O)c2C1c1ccc(Br)cc1 (stereo unspecified) | 
> 50 | > 50 | > 50 | > 50 | COc1c2c(c(O)c3c(=O)cc(-c4ccccc4)oc13)C(c1ccc(C)cc1)C(C#N)=C(N)O2 (stereo unspecified) | 
> 50 | > 50 | > 50 | > 50 | O=c1cc(-c2ccccc2)oc2cc(O)cc(O)c12 [CHRYSIN] | IC50 [5]: > 100 µM
14.5 | 26.1 | 15.4 | > 50 | N#CC1=C(N)Oc2cc3oc(-c4ccccc4)cc(=O)c3c(O)c2C1c1ccc(F)cc1 (stereo unspecified) | 
15.6 | 41.3 | 31.9 | 40.8 | N#CC1=C(N)Oc2cc3oc(-c4ccccc4)cc(=O)c3c(O)c2C1c1cccc([N+](=O)[O-])c1 (stereo unspecified) | 
38.1 | > 50 | > 50 | 40.1 | COc1ccc(C2C(C#N)=C(N)Oc3cc4oc(-c5ccccc5)cc(=O)c4c(O)c32)cc1 (stereo unspecified) | 
14.8 | 28.4 | 48.5 | 28.5 | Cc1ccc(C2C(C#N)=C(N)Oc3cc4oc(-c5ccccc5)cc(=O)c4c(O)c32)cc1 (stereo unspecified) | 
